Legend:
Rtkn = experiment: ToxTracker genotoxicity assay, Rtkn GFP reporter; details: fold induction vs vehicle control
[1] = Storage stability of the crosslinker dispersion (gelling / coagulation); details: dispersion pH 11 with TEA, Maxemul 7101
Protocol: Functional performance and stability of the crosslinker dispersion were assessed using spot tests on coating surfaces, based on procedures from the DIN 68861-1 standard, and viscosity measurements using a Brookfield DVE-LV viscometer (S62 spindle at 60 rpm unless mentioned otherwise). For these tests, the crosslinker dispersion was stored in an oven at 50° C. for 4 weeks. Every week, the viscosity of the crosslinker dispersion was determined. […] This coating composition was filtered and applied to Leneta test cards using 100 μm wire rod applicators (Test 1). For reference, films were also cast from the same composition lacking the crosslinker dispersion (Test Blank). The films were dried for 1 hour at 25° C., then annealed at 50° C. for 16 hours. Subsequently, a piece of cotton wool was soaked in 1:1 EtOH: demineralized water and placed on the film for 1 hour.

[2] = described in U.S. Pat. No. 5,133,997; cited from earlier work

CCCCOCC(CN1CC1)OC(=O)NCCCCCCn1c(=O)n(CCCCCCNC(=O)OC(COCCCC)CN2CC2)c(=O)n(CCCCCCNC(=O)OC(COCCCC)CN2CC2)c1=O (stereo not drawn) [Composition 1]
Rtkn GFP reporter induction level (Rtkn; With S9 rat liver extract, at 10% cytotoxicity, 3 h exposure and 24 h recovery): 1.0
Rtkn GFP reporter induction level (Rtkn; With S9 rat liver extract, at 25% cytotoxicity, 3 h exposure and 24 h recovery): 1.1
Rtkn GFP reporter induction level (Rtkn; With S9 rat liver extract, at 50% cytotoxicity, 3 h exposure and 24 h recovery): 1.1
Rtkn GFP reporter induction level (Rtkn; Without S9 rat liver extract, at 10% cytotoxicity, 24 h exposure): 1.0
Rtkn GFP reporter induction level (Rtkn; Without S9 rat liver extract, at 25% cytotoxicity, 24 h exposure): 1.0
Rtkn GFP reporter induction level (Rtkn; Without S9 rat liver extract, at 50% cytotoxicity, 24 h exposure): 0.9

O=C(NCCCCCCn1c(=O)n(CCCCCCNC(=O)OCCN2CC2)c(=O)n(CCCCCCNC(=O)OCCN2CC2)c1=O)OCCN1CC1 [Example C4]
Storage stability of dispersion [1]: a storage stable dispersion was not obtained
Time until severe coagulation was observed after preparation of the dispersion [1]: ≤ 4 h

O=C(CCN1CC1)OCC(CO)(COC(=O)CCN1CC1)COC(=O)CCN1CC1 [XAMA-7]
Stability in water [2]: unstable in water
